Tests used:
[1] = test system: STZ-induced diabetic neuropathy; experiment: Tactile allodynia and thermal hyperalgesia in streptozotocin-induced (STZ) diabetic neuropathy model; type: in vivo, Sprague Dawley rats; conditions: for Active Doses in STZ Diabetic Neuropathy Model (mg/kg, po) (p < 0.05 compared to STZ + VEH treated mice) MECHANICAL: mechanical allodynia, manual von Frey; for Active Doses in STZ Diabetic Neuropathy Model (mg/kg, po) (p < 0.05 compared to STZ + VEH treated mice) THERMAL: thermal hyperalgesia, paw withdrawal latency
Protocol: A cohort of 48 male Sprague Dawley rats, weighing 225-250 g at arrival, was group housed under constant temperature, humidity and a 12-hour light-dark cycle. Following acclimation to the animal colony, the animals were tested for baseline withdrawal responses to mechanical allodynia and thermal hyperalgesia using the methods described below in Chaplan, S. R., Bach, […]., Chung, J. M. and Yaksh, T. L. Quantitative assessment of tactile allodynia in the rat paw. J. Neurosci. Methods 53: 55-63, 1994; Joris, J. L., Dubner, R. and Hargreaves, K. M. Opioid analgesia at Peripheral Sites: a Target for Opioids Released during Stress and Inflammation? Anesthesia and Analgesia 66(12), 1277-81, 1987; and Morrow, T. J. Animal Models of Painful Diabetic Neuropathy: The STZ rat model. Current Protocols in Neuroscience, November; Chapter 9, Unit 9.18, 2004.. […] Two days later (on Day 3), hyperglycermia was confirmed by existence of blood glucose >350 mg/dL as measured by glucometer, and the animal health was monitored biweekly for 12 days. For measures of mechanical allodynia, rats were preselected for experimentation only if the pain threshold 7-14 days after STZ injection (pre-treatment) was reduced by 10 grams of force relative to the response of the individual paw before STZ challenge (pre-induction), namely, with clear presence of allodynia. The rats were randomized based on pre-dose mechanical allodynia scores to balanced treatment groups. The animals were tested prior to study inclusion for mechanical allodynia by the manual von Frey test on Day 20 (Chaplan up/down method using von Frey filaments on the plantar surface of the paw). The manual von Frey test was repeated at 0.5 or 1 hr following administrations of test articles, vehicle, and reference compound via the specified route(s) and on Day 21 post-surgery. […] The rats were randomized based on pre-dose thermal hyperalgesia scores to balanced treatment groups. Rats were preselected (with clear presence of thermal hyperalgesia) on Day 20. Thermal hyperalgesia was measured at 1 or 1.5 hr after dosing of test articles, vehicle, and reference compound via the specified route(s) on Day 21. Each rat was placed within a plastic box atop a glass floor for 20 to 30 minutes. A light beam under the floor was aimed at the plantar surface of the left hind paw. The time was measured automatically when the paw was withdrawn away from the thermal stimulus. A cut-off latency of 23 sec was imposed. The latency to withdrawal was obtained for each rat and defined as the heat pain threshold. Mean thresholds and withdrawal latencies were analyzed via Two Way ANOVA followed by Dunnett's Multiple Comparison tests to STZ+VEH group with differences considered significant at p<0.05.

[2] = test system: spinal nerve ligation peripheral neuropathy; experiment: Tactile allodynia and thermal hyperalgesia in spinal nerve ligation (SNL) peripheral neuropathy model; type: in vivo, Sprague Dawley rats
Protocol: A cohort of 48 male Sprague Dawley rats, weighing 225-250 g at arrival, was group housed under constant temperature, humidity and a 12-hour light-dark cycle. Following acclimation to the animal colony, the animals were tested for baseline withdrawal responses to mechanical allodynia and thermal hyperalgesia using the methods described in. Chaplan, S. R., Bach, […]., Chung, J. M. and Yaksh, T. L. Quantitative assessment of tactile allodynia in the rat paw. J. Neurosci. Methods 53: 55-63, 1994; Joris, J. L., Dubner, R. and Hargreaves, K. M. Opioid analgesia at Peripheral Sites: a Target for Opioids Released during Stress and Inflammation? Anesthesia and Analgesia 66(12), 1277-81, 1987; and Kim, S. H. and Chung, J. M. An experimental model of peripheral neuropathy produced by segmental spinal nerve ligation in the rat. Pain 50: 335-63, 1992. […] Thermal hyperalgesia was measured at 1 or 1.5 hr after dosing of test articles, vehicle, and reference compound via the specified route(s) on Day 21. […] The time was measured automatically when the paw was withdrawn away from the thermal stimulus. […] Mean thresholds and withdrawal latencies were analyzed via Two Way ANOVA followed by Dunnett's Multiple Comparison tests to SNL+VEH group with differences considered significant at p<0.05.

[3] = test system: A2780 human ovarian carcinoma; experiment: A2780 human ovarian carcinoma xenograft tumor growth delay in athymic nude mice; conditions: 60-day study
Protocol: Female athymic nude mice (Crl:NU(NCr)-Foxnlnu, Charles River Laboratories) were implanted with A2780 human ovarian carcinoma cells to initiate tumor growth.
Each mouse received 1×10^7 cells (0.1 mL cell suspension) subcutaneously in the right flank, and tumors were monitored as their volumes approached the target range of 100 to 150 mm3. Fourteen days later, designated as Day 1 of the study, mice were sorted into six groups of ten each. […] Tumors were measured twice weekly for the study duration.
Starting on Day 1 of the study, six groups (n=10) of female athymic nude mice with established A2780 tumors were treated according to the following plan. Treatments were administered either by intravenous injection (i.v.) or oral gavage (p.o.) and were adjusted to the body weight of the individual animal. Group 1 received Vehicle 1, i.v., once every other day for five doses (qod×5) and Vehicle 2, p.o., once daily to the end of the study (qd to end), and served as the control group for efficacy analysis. Group 2, the paclitaxel monotherapy group, received paclitaxel i.v., qod×5 plus Vehicle 2, p.o., qd to end. Group 3, the ozanimod monotherapy group, received ozanimod p.o., qd to end plus Vehicle 1, i.v., qod×5. Combination Group 4 received ozanimod p.o., qd to end plus paclitaxel i.v., qod×5.
Animals were monitored individually, and each mouse was euthanized when its tumor reached the endpoint volume of 2000 mm3 or on the final day, whichever came first. The time to endpoint (TTE) was calculated for each mouse. Treatment outcome was determined from percent tumor growth delay (% TGD), defined as the percent increase in median TTE for treated versus control mice, with differences in TTE values between groups deemed statistically significant at P<0.05 using logrank survival analysis. Mice were also monitored for complete regression (CR) and partial regression (PR) responses. An animal with a CR at the end of the study was additionally classified as a tumor-free survivor (TFS). Treatment tolerability was assessed by body weight measurements and frequent observation for clinical signs of treatment-related side effects.

Structure (SMILES) | Active Doses in STZ Diabetic Neuropathy Model (mg/kg, po) (p < 0.05 compared to STZ + VEH treated mice) MECHANICAL [1] [mg/kg] | Active Doses in STZ Diabetic Neuropathy Model (mg/kg, po) (p < 0.05 compared to STZ + VEH treated mice) THERMAL [1] [mg/kg] | Active Doses in SNL Neuropathy Model (mg/kg) (p < 0.05 compared to SNL + VEH treated mice) MECHANICAL ([2]; mechanical allodynia, manual von Frey) | Active Doses in SNL Neuropathy Model (mg/kg) (p < 0.05 compared to SNL + VEH treated mice) THERMAL ([2]; thermal hyperalgesia, paw withdrawal latency) | percent tumor growth delay (% TGD), monotherapy ([3]; monotherapy vs control, paclitaxel i.v. qod×5, ozanimod or Compound 103 p.o. qd to end) [%] | study survivors ([3]; n=10 per group, animals surviving the study)
Cc1ccccc1-c1noc(-c2ccc3c(c2)nnn3C(C)C)n1 [Compound 293, 5-[3-(2-methylphenyl)-1,2,4-oxadiazol-5-yl]-1-(propan-2-yl)-1H-1,2,3-benzotriazole] | <100 | <100 | – | – | – | –
CCC1(CC)CC(=O)c2cc(-c3nc(-c4cn[nH]c4)no3)ccc2O1 [Compound 469, 6-(3-(1H-pyrazol-4-yl)-1,2,4-oxadiazol-5-yl)-2,2-diethylchroman-4-one] | <100 | <100 | – | – | – | –
CCC1(CC)CC(=O)c2cc(-c3nc(-c4cccnc4)no3)ccc2O1 [Compound 103, 2,2-diethyl-6-[3-(pyridin-3-yl)-1,2,4-oxadiazol-5-yl]-3,4-dihydro-2H-1-benzopyran-4-one] | <100 | <100 | <100 | <100 | 15 | One

Reference: patent US11912693B2, “Compounds for modulating S1P1 activity and methods of using the same” (TREVENA, INC., priority 2017, dated 2024)
